Assay [1] deals with T1, GDP loaded biotinylated KRas^G12C protein (Homo sapiens, UniProt P01116, G12C).
T1 construct: biotin (biotinylated); made in house
In words: KRasG12C functional assay. Type of assay: biochemical. The settings on record: HTRF FRET readout of SOS-mediated nucleotide exchange and GST-Raf RBD binding, samples incubated for 4 hrs; for IC50: KRasG12C functional assay IC50 value (μM); for pIC50: read-out: KRasG12C functional assay IC50 value. On the procedure:
KRasG12C Functional Assay
All enzyme and substrate solutions were prepared in assay buffer containing 20 mM HEPES (pH 7.5), 5 mM MgCl2, 150 mM NaCl, and 0.01% Tween 20. […] In a separate mix 20 nM GST-Raf Ras binding domain (GST-Raf RBD, purified in house) and 4 μg/ml anti-GST XL665 antibody (Cisbio) was prepared in assay buffer containing 50 mM Potassium Fluoride and 0.05 mg/ml BSA and equilibrated for 4 hours before adding 0.6 μM Guanosine 5′-[γ-thio]triphosphate (GTPγS, Sigma) and 0.08 μM SOS (purified in house). 5 μl of the GST-RAF RBD mix was then dispensed into each well of the assay plate. […] This is detected simultaneously via the specific binding interaction between active GTPγS KRas^G12C with GST-Raf RBD which brings the europium and XL665 into close proximity enabling an increased FRET signal to be detected on a Pherastar (BMG) plate reader equipped with the HTRF filter module. […] IC50 values were calculated from normalised dose-response response FRET data curve fitted in Genedata screener (Basel, Switzerland).

The target of assay [2] is T1, GDP loaded biotinylated KRas^G12C protein. In words: KRasG12C mass spectrometry adducting assay. It counts as binding. The settings on record: test compound final concentration 10 μM, 4 μM KRasG12C, react for 4 hours. On the procedure:
KRasG12C Mass Spectrometry Adducting Assay
Enzyme solutions were prepared in assay buffer containing 20 mM HEPES (pH 7.5), 5 mM MgCl2, and 150 mM NaCl. […] The plate was sealed before reading on a Xevo G2 QTOF (Waters) and Acquity LC system (Waters). […] Blank samples were run in between each test sample.
Data was analysed in Mass Lynx software (Waters), the Total ion count (TIC) trace was used and the eluted protein peak data combined. Using the combined spectrum the data was deconvoluted using MaxEnt1 method. The peak area for apo-protein KRas^G12C (APO) and KRAS+relative cmpd mass (adduct) were measured, and a percentage adduct was calculated using the following calculation:
Percent adduct=100*(area of adduct peak/(sum of APO+adduct peaks)

pIC50: −log10 of the molar value. Read-outs that look alike come from different tables or passages of the source. A value given as a limit tells only on which side of the number the result lay.

One may read the IC50 as the concentration at which inhibition is half-maximal. A lower IC50 goes with greater potency. For orientation: pIC50 means −log10 of the IC50, conventionally taken in molar units.

T1 sequence (P01116 1-188 isoform P01116-2 G12C): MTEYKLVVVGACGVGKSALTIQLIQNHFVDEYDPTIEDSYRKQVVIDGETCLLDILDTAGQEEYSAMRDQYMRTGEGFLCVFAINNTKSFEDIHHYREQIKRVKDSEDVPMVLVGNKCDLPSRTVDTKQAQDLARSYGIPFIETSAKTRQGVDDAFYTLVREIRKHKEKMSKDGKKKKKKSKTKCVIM

In the case of `C=CC(=O)N1CCN2c3ncnc4cc(-c5c(C)ccc6[nH]ncc56)c(Cl)c(c34)OC[C@@H]2C1` (single isomer, unassigned) [Example 2], in assay [1], the half-inhibitory concentration (IC50) turned out to be 38.9 µM. In addition, the “KRasG12C M.S. Binding Mean adduct %” value in assay [2] is reported as 2%.
For `C=CC(=O)N1CCN2c3ncnc4cc(-c5c(C)ccc6[nH]ncc56)c(Cl)c(c34)OC[C@@H]2C1` (single isomer, unassigned) [Example 3], the IC50 in assay [1] was 0.082 µM. In assay [2], the “KRasG12C M.S. Binding Mean adduct %” value turned out to be 96%.
Take `C=CC(=O)N1CCN2c3ncnc4cc(-c5c(O)cccc5F)c(Cl)c(c34)OC[C@@H]2C1` (single isomer, unassigned) [Example 10]: the negative logarithm of the IC50 (pIC50) in assay [1] was 6.61. The “KRasG12C M.S. Binding Mean adduct %” value in assay [2] stood at 30%.
In the same order, the values of `C=CC(=O)N1CCN2c3ncnc4cc(-c5c(O)cccc5F)c(Cl)c(c34)OC[C@@H]2C1` (single isomer, unassigned) [Example 11] are 7.01 and 92%.
On the same counts, the results for `C=CC(=O)N1CCN2c3ncnc4cc(-c5c(O)cccc5Cl)c(Cl)c(c34)OC[C@@H]2C1` (single isomer, unassigned) [Example 15] are 4.64 and 12%.
On the same counts, the results for `C=CC(=O)N1CCN2c3ncnc4cc(-c5c(O)cccc5Cl)c(Cl)c(c34)OC[C@@H]2C1` (single isomer, unassigned) [Example 16] are 7.49 and 100%.
As to `C=CC(=O)N1CCN2c3ncnc4cc(-c5c(O)cccc5OC)c(Cl)c(c34)OC[C@@H]2C1` (single isomer, unassigned) [Example 17], the pIC50 in assay [1] is below 4.00. Further, the “KRasG12C M.S. Binding Mean adduct %” value in assay [2] is given as 0%.
In the same order, the values of `C=CC(=O)N1CCN2c3ncnc4cc(-c5c(O)cccc5OC)c(Cl)c(c34)OC[C@@H]2C1` (single isomer, unassigned) [Example 18] are 6.06 and 100%.
On the same counts, the results for `C=CC(=O)N1CCN2c3ncnc4cc(-c5c(O)cccc5C#N)c(Cl)c(c34)OC[C@@H]2C1` (single isomer, unassigned) [Example 19] are 4.38 and 0%.
Regarding `C=CC(=O)N1CCN2c3ncnc4cc(-c5c(O)cccc5C#N)c(Cl)c(c34)OC[C@@H]2C1` (single isomer, unassigned) [Example 20], the pIC50 in assay [1] was 6.72. In assay [2], the “KRasG12C M.S. Binding Mean adduct %” value came to 100%.
With `C=CC(=O)N1CCN2c3nc(N4CCOCC4)nc4cc(-c5c(C)ccc6[nH]ncc56)c(Cl)c(c34)OC[C@@H]2C1` (single isomer, unassigned) [Example 71], the pIC50 in assay [1] was 6.65. In addition, the “KRasG12C M.S. Binding Mean adduct %” value in assay [2] stood at 83%.
Turning to `C=CC(=O)N1CCN2c3nc(N4CCOCC4)nc4cc(-c5c(C)ccc6[nH]ncc56)c(Cl)c(c34)OC[C@@H]2C1` (single isomer, unassigned) [Example 72], in assay [1], the negative logarithm of the IC50 (pIC50) was 4.40. For the same molecule, the “KRasG12C M.S. Binding Mean adduct %” value in assay [2] is 5%.
For the molecule `C=CC(=O)N1CCN2c3nc(NC4CCN(C5CC5)CC4)nc4cc(-c5c(C)ccc6[nH]ncc56)c(Cl)c(c34)OC[C@@H]2C1` (single isomer, unassigned) [Example 73], the pIC50 in assay [1] was 5.72. For the same molecule, in assay [2], the “KRasG12C M.S. Binding Mean adduct %” value came out at 8%.
Consider `C=CC(=O)N1CCN2c3nc(NC4CCN(C5CC5)CC4)nc4cc(-c5c(C)ccc6[nH]ncc56)c(Cl)c(c34)OC[C@@H]2C1` (single isomer, unassigned) [Example 74], for which the negative logarithm of the IC50 (pIC50) in assay [1] is 7.92. Moreover, the “KRasG12C M.S. Binding Mean adduct %” value in assay [2] worked out at 94%.
In the case of `C=CC(=O)N1CCN2c3ncnc4c(F)c(-c5c(O)cccc5F)c(Cl)c(c34)OC[C@@H]2C1` [Example 69, 1-((8aS)-6-chloro-4-fluoro-5-(2-fluoro-6-hydroxyphenyl)-8a,9,11,12-tetrahydro-pyrazino[2′,1′:3,4][1,4]oxazepino[5,6,7-de]quinazolin-10 (8H)-yl)prop-2-en-1-one], in assay [1], the pIC50 is 7.54.

The values are drawn from US20220127281A1, “HETEROARYL COMPOUNDS THAT INHIBIT G12C MUTANT RAS PROTEINS” (AstraZeneca AB, priority 2017, published 2022).
